The values that follow come from ChEMBL document CHEMBL3351890, “Azapropellanes with anti-influenza a virus activity” (ACS Med Chem Lett, 2014).

SMILES strings stand for the structures.

Data set [1] deals with Influenza A virus. The data set is described as follows: Antiviral activity against Influenza A virus A/PR/8/34 (H1N1) infected in MDCK cells assessed as inhibition of virus-induced cytopathic effect. The format is functional, organism-based. To be noted: A/Puerto Rico/8/1934(H1N1). In general terms: Cytopathic effects are the visible damage that an infection or toxin causes in cultured cells.

Data set [2] has as its system Influenza A virus. The experiment in a line: Antiviral activity against Influenza A virus A/PR/8/34 (H1N1) infected in MDCK cells assessed as cell viability by MTS assay. The format is functional, organism-based. To be noted: A/Puerto Rico/8/1934(H1N1). Background: Tetrazolium assays rely on reduction of a dye to a coloured formazan, in cell work by metabolically active cells.

The nature of data set [3]: Antiviral activity against Influenza A virus A/HK/7/87 (H3N2) infected in MDCK cells assessed as inhibition of virus-induced cytopathic effect. The data set is classed as functional, cell-based, Influenza A virus (A/Hong Kong/7/1987(H3N2)).
The nature of data set [4]: Antiviral activity against Influenza A virus A/HK/7/87 (H3N2) infected in MDCK cells assessed as cell viability by MTS assay. The format is functional, cell-based, Influenza A virus (A/Hong Kong/7/1987(H3N2)).
In data set [5] the target is Matrix protein 2 (Influenza A virus) (UniProt P06821). The data set is described as follows: Inhibition of influenza A virus wild type M2 proton channel expressed in Xenopus oocytes at 100 uM for 2 mins by two-electrode voltage clamp analysis. The format is cell-based. For orientation: In two-electrode clamp one electrode senses voltage and the other passes current.
Chain of Matrix protein 2 (Influenza A virus) (P06821 whole entry): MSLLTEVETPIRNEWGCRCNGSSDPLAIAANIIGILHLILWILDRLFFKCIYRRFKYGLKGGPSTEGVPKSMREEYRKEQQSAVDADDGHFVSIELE

A short description of data set [6]: Cytotoxicity against MDCK cells assessed as cell morphology by microscopical examination. The format is cell-based, Canis lupus familiaris. To be noted: dog.
The nature of data set [7]: Cytotoxicity against MDCK cells assessed as cell viability after 72 hrs by MTS assay. The format is cell-based, Canis lupus familiaris. Conditions: dog.

By EC50 is commonly meant the concentration that produces a half-maximal response. Usually inhibition stands for how much of the control response was suppressed. A lower inhibition goes with a response near the control. The term CC50 denotes the concentration giving 50% cytotoxicity. On to `C1=CC[C@]23CCCC[C@@]2(C1)CNC3`, for which the EC50 was 30 µM in data set [1], 14 µM in data set [2], over 100 µM in data set [3] and over 100 µM in data set [4]. Further, the inhibition in data set [5] was 19.1%. For the same molecule, in data set [6], the MCC was over 100 µM. Besides, in data set [7], the 50% cytotoxic concentration (CC50) at 72 h is over 100 µM.

For the molecule `N=C(N)N1C[C@@]23CC=CC[C@@]2(CCC3)C1`, the EC50 in data set [1], in data set [2], in data set [3] and in data set [4] was over 100 µM each time. Further, the MCC in data set [6] is over 100 µM. Further, the CC50 at 72 h in data set [7] was over 100 µM.

In the case of `C1=CC[C@]23CC=CC[C@@]2(C1)CNC3`, the EC50 in data set [1] was 38 µM; in data set [2], 30 µM; in data set [3] it was over 100 µM; in data set [4], over 100 µM. Moreover, the MCC in data set [6] is over 100 µM. Moreover, in data set [7], the CC50 at 72 h is over 100 µM.

As to `C1=CC[C@]23CCC[C@@]2(C1)CNC3`, the EC50 is 70 µM in data set [1], 56 µM in data set [2], over 100 µM in data set [3] and over 100 µM in data set [4]. Further, the MCC in data set [6] was over 100 µM. The CC50 at 72 h in data set [7] was over 100 µM.

For the molecule `CC1CC23CC(C)CC2(C1)CN(C(=N)N)C3` (stereo not given), the EC50 in data set [1] was 2 µM; in data set [2] it was 1.6 µM; in data set [3], over 100 µM; in data set [4] it was over 100 µM. Further, the inhibition in data set [5] is 8.8%. In data set [6], the MCC was over 100 µM. Further, the CC50 at 72 h in data set [7] is over 20 µM.

For the molecule `C=C1CC23CC=CCC2(CNC3)C1` (stereo not given), the EC50 in data set [1] is 45 µM; in data set [2], 43 µM; in data set [3] it was over 100 µM; in data set [4], over 100 µM. Further, in data set [5], the inhibition was 14.9%. Further, the MCC in data set [6] is over 100 µM. Besides, the CC50 at 72 h in data set [7] was over 100 µM.

As to `C1CC[C@]23CCCC[C@@]2(C1)CNC3`, the concentration giving a half-maximal response (EC50) in data set [1] is 5.9 µM; in data set [2], 13 µM; in data set [3], over 100 µM; in data set [4], over 100 µM. For the same molecule, the MCC in data set [6] was over 100 µM. Further, the CC50 at 72 h in data set [7] is over 100 µM.

Consider `C=C1CC23CNCC2(C1)CC(=C)C3` (stereo not given), for which the EC50 is under 0.8 µM in data set [1], under 0.8 µM in data set [2], over 100 µM in data set [3] and over 100 µM in data set [4]. The inhibition in data set [5] came to 29.3%. The MCC in data set [6] is over 100 µM. Also, the CC50 at 72 h in data set [7] was over 100 µM.

Turning to `CC1=C(C)C[C@]23CNC[C@@]2(C1)CC(C)=C(C)C3`, the half-maximal effective concentration (EC50) was 7 µM in data set [1], 5.6 µM in data set [2], over 100 µM in data set [3] and over 100 µM in data set [4]. For the same molecule, the MCC in data set [6] is over 100 µM. In addition, in data set [7], the half-maximal cytotoxic concentration (CC50) at 72 h was over 100 µM.

In the case of `C=C1CC23CCCC2(CNC3)C1` (stereo not given), the concentration giving a half-maximal response (EC50) in data set [1], in data set [2], in data set [3] and in data set [4] was over 100 µM each time. For the same molecule, the inhibition in data set [5] amounted to 29.9%. The MCC in data set [6] is over 100 µM. The CC50 at 72 h in data set [7] was over 100 µM.

As to `C=C1CC23CC(=C)CC2(C1)CN(C(=N)N)C3` (stereo not given), the concentration for a half-maximal effect (EC50) in data set [1], in data set [2], in data set [3] and in data set [4] was over 100 µM throughout. The MCC in data set [6] turned out to be 16 µM. In addition, in data set [7], the CC50 at 72 h is 20 µM.

With `N=C(N)N1CC23CCCC2(CCC3)C1` (stereo not given), the EC50 in data set [1], in data set [2], in data set [3] and in data set [4] was over 100 µM throughout. In addition, the MCC in data set [6] stood at 54 µM. Moreover, the CC50 at 72 h in data set [7] came out at 100 µM.

As for `CC1CC23CNCC2(C1)CC(C)C3` (stereo not given), the EC50 was 24 µM in data set [1], 20 µM in data set [2], over 100 µM in data set [3] and over 100 µM in data set [4]. Moreover, the inhibition in data set [5] is 58.7%. The MCC in data set [6] was over 100 µM. The CC50 at 72 h in data set [7] was over 100 µM.

As for `C1CC23CCCC2(C1)CNC3` (stereo not given), the EC50 in data set [1], in data set [2], in data set [3] and in data set [4] was over 100 µM each time. The molecule further returned an inhibition in data set [5] of 47.1%. Further, in data set [6], the MCC was over 100 µM. Besides, in data set [7], the CC50 at 72 h was over 100 µM.

Take `C1=CC2C3C4C5C=CC4C24CNCC54C13`: the values for the 50% effective concentration (EC50) in data set [1] and in data set [3] were 16 µM and 14 µM, respectively. In addition, in data set [6], the MCC was over 100 µM. Also, the CC50 at 72 h in data set [7] was over 100 µM.
